One block for each compound: values may come before it.
What was measured:
recombinant HDAC1 = target: T1, recombinant HDAC1 (Homo sapiens, UniProt Q13547); test: HDAC1 inhibitory assay (protease-coupled, Ac-peptide-AMC fluorescence); format: biochemical; conditions: for times greater potency than SAHA, HDAC1: ratio of IC50 versus SAHA; for IC50: recombinant HDAC1, n ≥ 3
T1 construct: purchased BPS Biosciences
Protocol: The HDAC1 enzyme activity in vitro was determined by the protease-coupled assay. Different concentrations of compounds were incubated with recombinant HDAC1 (BPS Biosciences, San Diego, CA, USA) at room temperature for 15 min, followed by adding trypsin, as well as Ac-peptide-AMC substrates, to initiate the reaction in a Tris-based assay buffer. […] The IC50 values were calculated by GraphPad Prism software (La Jolla, CA, USA). (for details see Supplementary Materials)

A549 cells [1] = test: In vitro anti-proliferation assay (MTT), A549; format: cell-based; conditions: Homo sapiens, 48 h, read-out: Anti-proliferative activity IC50, A549
Protocol: (§1) The in vitro anti-proliferation assay was operated as previously described. In brief, the human cancer cell lines, A549, HeLa and HepG2, were seeded into 96-well plates at the appropriate cell densities. After incubation for 24 h, the cells were treated with various concentrations of tested compounds for 48 h. Then, the 3–(4,5–dimethyl–2-thiazolyl)–2,5–diphenyl–2–H–tetrazolium bromide (MTT) solution was added and co-incubated for another 4 h. The reactions were stopped by the addition of DMSO solution, and the samples were measured at 490 nm by a microplate spectrophotometer (Thermo Fisher Scientific, Waltham, MA USA). The IC50 was calculated using GraphPad Software. Three independent experiments were carried out in triplicate. (for details see Supplementary Materials)

[2] = tested on: acetylated histone H3 and H4; test: Western blot of acetylated histone levels in A549 cells; conditions: A549 cells, 0.2, 0.5 and 1.0 μM, 48 h
Protocol: The levels of acetylated histone H3 and H4 were analyzed by Western blotting assays with β–actin as the negative control. […] Briefly, human cancer cells were lysed in a lysis buffer (50 mM Tris-HCl pH 8.0, 5 mM EDTA, 100 mM NaCl, 0.5% NP-40, 1 mM PMSF), centrifuged for 10 min at 10,000 g, and the insoluble debris were discarded. Cell lysates were further analyzed with SDS-PAGE and western blotting with the indicated antibodies.

HepG2 cells = test: In vitro anti-proliferation assay (MTT), HepG2; format: cell-based; conditions: Homo sapiens, 48 h, read-out: Anti-proliferative activity IC50, HepG2
Protocol: as §1

HDAC2 = HDAC2 (Homo sapiens, UniProt Q92769); test: HDAC isoform inhibition assay, HDAC2
Sequence of HDAC2 (Q92769 whole entry, canonical isoform): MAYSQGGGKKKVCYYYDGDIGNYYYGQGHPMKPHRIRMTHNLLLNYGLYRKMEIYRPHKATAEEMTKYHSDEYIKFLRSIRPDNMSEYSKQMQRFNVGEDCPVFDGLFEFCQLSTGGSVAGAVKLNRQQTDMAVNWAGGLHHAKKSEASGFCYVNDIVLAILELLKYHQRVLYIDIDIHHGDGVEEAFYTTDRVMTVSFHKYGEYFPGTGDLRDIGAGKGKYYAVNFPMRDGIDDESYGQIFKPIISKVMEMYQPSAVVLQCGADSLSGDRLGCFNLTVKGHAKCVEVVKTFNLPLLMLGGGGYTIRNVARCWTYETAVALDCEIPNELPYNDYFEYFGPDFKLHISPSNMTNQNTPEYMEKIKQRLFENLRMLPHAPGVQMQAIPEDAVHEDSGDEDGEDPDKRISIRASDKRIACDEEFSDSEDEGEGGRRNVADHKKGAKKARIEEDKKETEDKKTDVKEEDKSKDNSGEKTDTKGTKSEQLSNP

A549 cells [3] = test: Cell cycle analysis (PI, flow cytometry); format: cell-based, human; conditions: 24 h, result in words
Protocol: Next, we investigated whether the potent anti-proliferative activity of 10e and 11d resulted from the induction of the cell cycle arrest. […] This was evidenced by the increasing percentages of cells in the G2/M phase, accompanied by a proportionate reduction in other phases of the cell cycle.
The cell cycle analysis was carried out by estimating the DNA contents with flow cytometry. After incubation with the indicated doses of 10e or 11d for 24 h, A549 cells were fixed in 70% ice-cold ethanol, incubated overnight at –20 °C, stained with propidium iodide (PI)/Triton X-100 containing RNaseA solution for 20 min at 37 °C, and then analyzed by FACS.

A549 cells [4] = test: Cell apoptosis analysis (annexin V FITC/PI, flow cytometry); conditions: 72 h
Protocol: The cell apoptosis analysis was measured by annexin V FITC/PI assay using the Vybrant Apoptosis Assay kit (Invitrogen, Carlsbad, CA, USA). […] After staining, 400 μL of 1X annexin-binding buffer was added, mixed gently and kept on ice. The samples were measured using a BD Biosciences FACS Aria flow cytometer.

HDAC11 = target: T2, HDAC11 (Homo sapiens, UniProt Q96DB2); test: HDAC isoform inhibition assay, HDAC11
T2 sequence (Q96DB2 1-347): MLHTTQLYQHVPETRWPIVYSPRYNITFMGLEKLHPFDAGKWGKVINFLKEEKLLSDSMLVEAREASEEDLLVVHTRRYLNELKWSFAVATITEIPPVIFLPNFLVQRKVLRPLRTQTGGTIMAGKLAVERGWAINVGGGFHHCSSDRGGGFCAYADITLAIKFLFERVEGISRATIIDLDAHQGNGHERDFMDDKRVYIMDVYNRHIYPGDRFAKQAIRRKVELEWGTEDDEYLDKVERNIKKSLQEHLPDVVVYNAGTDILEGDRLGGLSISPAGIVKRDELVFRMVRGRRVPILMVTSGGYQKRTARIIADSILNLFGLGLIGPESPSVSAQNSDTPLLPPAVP

HDAC4 = HDAC4 (Homo sapiens, UniProt P56524); test: HDAC isoform inhibition assay, HDAC4
Sequence of HDAC4 (P56524 whole entry, canonical isoform): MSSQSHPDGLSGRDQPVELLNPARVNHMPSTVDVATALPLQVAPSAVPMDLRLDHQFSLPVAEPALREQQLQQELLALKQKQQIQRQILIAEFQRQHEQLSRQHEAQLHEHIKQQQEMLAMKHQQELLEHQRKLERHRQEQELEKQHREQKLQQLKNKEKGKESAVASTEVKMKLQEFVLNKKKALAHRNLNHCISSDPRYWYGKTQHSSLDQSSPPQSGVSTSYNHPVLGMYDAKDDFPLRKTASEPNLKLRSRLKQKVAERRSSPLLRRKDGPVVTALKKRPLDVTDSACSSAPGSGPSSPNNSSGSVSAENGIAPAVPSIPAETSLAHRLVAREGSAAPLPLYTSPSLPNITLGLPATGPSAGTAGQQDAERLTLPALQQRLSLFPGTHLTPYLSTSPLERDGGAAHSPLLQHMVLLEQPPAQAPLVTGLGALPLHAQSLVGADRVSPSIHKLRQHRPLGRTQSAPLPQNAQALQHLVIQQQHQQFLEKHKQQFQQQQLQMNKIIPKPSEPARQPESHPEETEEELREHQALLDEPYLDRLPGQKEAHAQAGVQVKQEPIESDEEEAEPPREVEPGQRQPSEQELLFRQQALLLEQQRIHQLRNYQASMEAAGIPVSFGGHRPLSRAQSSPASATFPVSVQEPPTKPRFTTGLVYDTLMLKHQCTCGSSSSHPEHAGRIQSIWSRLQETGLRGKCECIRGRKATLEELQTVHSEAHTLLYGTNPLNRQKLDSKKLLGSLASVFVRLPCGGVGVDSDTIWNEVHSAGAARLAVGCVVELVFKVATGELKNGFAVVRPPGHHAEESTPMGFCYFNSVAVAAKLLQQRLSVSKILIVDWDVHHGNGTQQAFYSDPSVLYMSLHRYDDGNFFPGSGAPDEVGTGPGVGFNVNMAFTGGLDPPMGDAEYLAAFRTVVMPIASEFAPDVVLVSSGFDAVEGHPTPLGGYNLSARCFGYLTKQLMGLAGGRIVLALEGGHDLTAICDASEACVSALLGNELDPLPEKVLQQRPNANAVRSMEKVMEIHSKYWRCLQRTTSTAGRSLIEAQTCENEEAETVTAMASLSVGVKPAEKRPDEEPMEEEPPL

HDAC6 = target: T3, HDAC6 (Homo sapiens, UniProt Q9UBN7); test: HDAC isoform inhibition assay, HDAC6
T3 sequence (Q9UBN7 1-1215): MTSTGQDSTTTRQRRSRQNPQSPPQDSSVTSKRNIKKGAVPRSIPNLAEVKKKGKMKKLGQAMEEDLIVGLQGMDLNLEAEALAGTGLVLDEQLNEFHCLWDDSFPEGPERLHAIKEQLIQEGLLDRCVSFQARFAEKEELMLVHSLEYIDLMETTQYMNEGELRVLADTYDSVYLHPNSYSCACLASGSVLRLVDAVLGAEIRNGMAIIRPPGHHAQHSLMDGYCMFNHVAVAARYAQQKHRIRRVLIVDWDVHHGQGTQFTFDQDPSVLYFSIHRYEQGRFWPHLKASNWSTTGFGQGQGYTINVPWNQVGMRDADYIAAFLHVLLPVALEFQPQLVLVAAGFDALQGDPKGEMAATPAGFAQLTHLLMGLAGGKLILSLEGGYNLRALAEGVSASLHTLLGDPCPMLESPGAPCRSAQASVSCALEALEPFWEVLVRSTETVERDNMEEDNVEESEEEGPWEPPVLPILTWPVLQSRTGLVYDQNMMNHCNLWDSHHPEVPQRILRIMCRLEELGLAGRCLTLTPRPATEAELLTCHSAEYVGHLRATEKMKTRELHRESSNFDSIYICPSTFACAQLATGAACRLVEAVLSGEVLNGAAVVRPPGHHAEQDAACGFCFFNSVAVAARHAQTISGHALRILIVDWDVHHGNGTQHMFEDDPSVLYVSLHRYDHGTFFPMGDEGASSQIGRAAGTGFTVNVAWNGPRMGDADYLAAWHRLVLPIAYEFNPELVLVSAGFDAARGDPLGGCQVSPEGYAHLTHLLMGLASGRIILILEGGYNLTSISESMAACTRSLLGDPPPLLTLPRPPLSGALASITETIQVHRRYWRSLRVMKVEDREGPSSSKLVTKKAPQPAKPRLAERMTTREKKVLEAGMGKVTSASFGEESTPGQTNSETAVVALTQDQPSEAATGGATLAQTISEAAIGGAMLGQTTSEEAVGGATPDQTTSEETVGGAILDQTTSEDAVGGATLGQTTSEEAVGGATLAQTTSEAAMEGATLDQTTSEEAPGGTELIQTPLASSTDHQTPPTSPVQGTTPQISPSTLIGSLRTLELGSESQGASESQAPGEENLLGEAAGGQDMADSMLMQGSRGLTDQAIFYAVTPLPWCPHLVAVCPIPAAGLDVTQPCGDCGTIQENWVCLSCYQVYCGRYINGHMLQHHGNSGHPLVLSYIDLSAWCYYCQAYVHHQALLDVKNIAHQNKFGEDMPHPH

Hela cells = test: In vitro anti-proliferation assay (MTT), Hela; format: cell-based; conditions: Homo sapiens, 48 h, read-out: Anti-proliferative activity IC50, Hela
Protocol: as §1

HDAC8 = target: T4, HDAC8 (Homo sapiens, UniProt Q9BY41); test: HDAC isoform inhibition assay, HDAC8; conditions: for times greater potency than SAHA, HDAC8: ratio of IC50 versus SAHA
T4 sequence (Q9BY41 1-377): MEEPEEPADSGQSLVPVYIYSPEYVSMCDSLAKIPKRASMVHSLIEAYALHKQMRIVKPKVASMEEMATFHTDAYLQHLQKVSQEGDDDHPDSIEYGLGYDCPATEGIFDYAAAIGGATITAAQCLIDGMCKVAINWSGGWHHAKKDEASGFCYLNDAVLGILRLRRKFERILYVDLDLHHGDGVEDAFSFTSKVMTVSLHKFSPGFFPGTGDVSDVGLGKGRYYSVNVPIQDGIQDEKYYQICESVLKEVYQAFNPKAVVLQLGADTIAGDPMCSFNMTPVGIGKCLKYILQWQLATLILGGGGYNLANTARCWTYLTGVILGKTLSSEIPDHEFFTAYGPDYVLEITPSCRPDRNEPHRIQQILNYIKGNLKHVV

HDAC5 = HDAC5 (Homo sapiens, UniProt Q9UQL6); test: HDAC isoform inhibition assay, HDAC5
Sequence of HDAC5 (Q9UQL6 whole entry, canonical isoform): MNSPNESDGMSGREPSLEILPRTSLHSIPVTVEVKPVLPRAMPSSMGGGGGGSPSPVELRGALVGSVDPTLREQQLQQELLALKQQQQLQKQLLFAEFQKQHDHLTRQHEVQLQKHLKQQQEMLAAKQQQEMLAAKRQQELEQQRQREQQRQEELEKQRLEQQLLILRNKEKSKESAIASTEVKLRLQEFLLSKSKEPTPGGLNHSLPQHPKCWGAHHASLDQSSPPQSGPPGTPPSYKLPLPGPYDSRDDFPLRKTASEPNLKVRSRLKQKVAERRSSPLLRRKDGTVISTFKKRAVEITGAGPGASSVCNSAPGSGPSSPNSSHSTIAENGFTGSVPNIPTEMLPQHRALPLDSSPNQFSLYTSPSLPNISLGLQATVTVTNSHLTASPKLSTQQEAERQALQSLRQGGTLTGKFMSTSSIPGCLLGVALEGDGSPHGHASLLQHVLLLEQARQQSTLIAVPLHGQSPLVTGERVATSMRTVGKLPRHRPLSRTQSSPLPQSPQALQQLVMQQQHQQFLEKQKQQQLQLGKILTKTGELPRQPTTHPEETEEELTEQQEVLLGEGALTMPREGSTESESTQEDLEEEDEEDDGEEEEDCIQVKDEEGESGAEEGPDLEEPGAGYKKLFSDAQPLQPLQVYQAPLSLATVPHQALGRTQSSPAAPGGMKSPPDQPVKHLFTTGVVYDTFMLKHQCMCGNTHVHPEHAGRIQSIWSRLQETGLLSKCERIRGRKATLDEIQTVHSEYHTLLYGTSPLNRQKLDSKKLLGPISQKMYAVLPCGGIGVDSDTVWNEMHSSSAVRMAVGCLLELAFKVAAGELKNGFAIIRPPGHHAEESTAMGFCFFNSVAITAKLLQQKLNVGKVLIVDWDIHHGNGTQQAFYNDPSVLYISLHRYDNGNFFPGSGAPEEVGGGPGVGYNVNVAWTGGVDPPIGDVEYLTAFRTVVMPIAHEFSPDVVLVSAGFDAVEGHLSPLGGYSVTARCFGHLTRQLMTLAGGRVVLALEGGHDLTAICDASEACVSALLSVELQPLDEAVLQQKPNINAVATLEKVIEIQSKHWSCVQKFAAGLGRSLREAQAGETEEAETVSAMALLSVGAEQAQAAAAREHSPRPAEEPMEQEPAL

T1 sequence (Q13547 whole entry): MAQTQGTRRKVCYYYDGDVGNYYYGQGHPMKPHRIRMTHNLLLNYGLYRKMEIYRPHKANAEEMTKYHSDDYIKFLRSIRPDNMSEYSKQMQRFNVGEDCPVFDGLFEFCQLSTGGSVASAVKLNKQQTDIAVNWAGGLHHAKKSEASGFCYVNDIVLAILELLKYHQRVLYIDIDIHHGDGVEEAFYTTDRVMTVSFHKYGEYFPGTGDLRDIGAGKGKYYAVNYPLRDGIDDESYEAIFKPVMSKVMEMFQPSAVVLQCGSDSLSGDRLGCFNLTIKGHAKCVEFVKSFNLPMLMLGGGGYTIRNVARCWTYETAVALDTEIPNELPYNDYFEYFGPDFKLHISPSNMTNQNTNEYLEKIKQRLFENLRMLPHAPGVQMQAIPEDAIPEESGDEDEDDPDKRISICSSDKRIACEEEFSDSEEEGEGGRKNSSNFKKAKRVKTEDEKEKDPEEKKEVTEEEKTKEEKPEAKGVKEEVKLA

SMILES: COc1ccc2c(OCCCCCCCC(=O)NO)cc(=O)oc2c1 [Compound 11d, N–hydroxy–8–((7–methoxy–2–oxo–2H–chromen–4–yl)oxy)octanamide]
IC50 (A549 cells [1]): 560 ± 280 nM
expression of acetylated histone H3 and H4 [2]: increase the expression of acetylated histone H3 and H4 in a dose-dependent manner
IC50 (HepG2 cells): 7710 ± 2070 nM
IC50 (HDAC2): < 0.32 nM
cell cycle arrest in A549 cells (A549 cells [3]): significant induction of the G2/M phase cell cycle arrest in a concentration-dependent manner
apoptosis induced in A549 cancer cells (A549 cells [4]; 1.25 μM): 81.7%
apoptosis induced in A549 cancer cells (A549 cells [4]; 2.5 μM): 87.2%
apoptosis induced in A549 cancer cells (A549 cells [4]; 5 μM): 91.4%
IC50 (HDAC11): > 1000 nM
IC50 (HDAC4): > 1000 nM
IC50 (HDAC6): 5.67 ± 1.42 nM
IC50 (Hela cells): 2620 ± 1530 nM
IC50 (HDAC8): 1.85 ± 0.14 nM
times greater potency than SAHA, HDAC8 (HDAC8): ~107 times
IC50 (HDAC5): > 1000 nM

SMILES: COc1ccc2c(NCCCCCC(=O)NO)cc(=O)oc2c1 [Compound 10c, N–hydroxy–6–((7–methoxy–2–oxo–2H–chromen–4–yl)amino)hexanamide]
IC50 (recombinant HDAC1): 6.43 ± 0.16 nM

SMILES: COc1ccc2c(NCCCCCCC(=O)NO)cc(=O)oc2c1 [Compound 10d, N–hydroxy–7–((7–methoxy–2–oxo–2H–chromen–4–yl)amino)heptanamide]
IC50 (recombinant HDAC1): 2.51 ± 0.12 nM

SMILES: O=C(CCCCCNc1cc(=O)oc2ccccc12)NO [Compound 10b, N–hydroxy–6–((2–oxo–2H–chromen–4–yl)amino)hexanamide]
IC50 (recombinant HDAC1): 9.11 ± 0.2 nM

SMILES: COc1ccc2c(NCCCCCCCC(=O)NO)cc(=O)oc2c1 [Compound 10e, N–hydroxy–8–((7–methoxy–2–oxo–2H–chromen–4–yl)amino)octanamide]
IC50 (recombinant HDAC1): 0.24 ± 0.01 nM
IC50 (A549 cells [1]): 1960 ± 740 nM
expression of acetylated histone H3 and H4 [2]: increase the expression of acetylated histone H3 and H4 in a dose-dependent manner
IC50 (HepG2 cells): > 10000 nM
IC50 (HDAC2): 0.68 ± 0.05 nM
times greater potency than SAHA, HDAC2 (HDAC2; ratio of IC50 versus SAHA): ~27 times
cell cycle arrest in A549 cells (A549 cells [3]): significant induction of the G2/M phase cell cycle arrest in a concentration-dependent manner
apoptosis induced in A549 cancer cells (A549 cells [4]; 1.25 μM): 51.9%
apoptosis induced in A549 cancer cells (A549 cells [4]; 2.5 μM): 84.4%
apoptosis induced in A549 cancer cells (A549 cells [4]; 5 μM): 90.3%
IC50 (HDAC11): > 1000 nM
IC50 (HDAC4): > 1000 nM
IC50 (HDAC6): 5.4 ± 1 nM
IC50 (Hela cells): 1310 ± 860 nM
IC50 (HDAC8): 16.9 ± 0.01 nM
times greater potency than SAHA, HDAC8 (HDAC8): ~12 times
IC50 (HDAC5): > 1000 nM

SMILES: O=C(CCNc1cc(=O)oc2ccccc12)NO [Compound 10a, N–hydroxy–3–((2–oxo–2H–chromen–4–yl)amino)propanamide]
IC50 (recombinant HDAC1): > 100 nM

SMILES: O=C(CCCCCCC(=O)Nc1ccccc1)NO [SAHA, vorinostat, reference compound]
apoptosis induced in A549 cancer cells (A549 cells [4]; 1.25 μM): 27.6%
apoptosis induced in A549 cancer cells (A549 cells [4]; 2.5 μM): 40.9%
apoptosis induced in A549 cancer cells (A549 cells [4]; 5 μM): 61.4%

Now from value to compound:

times greater potency than SAHA, HDAC1 (recombinant HDAC1): approximately three
IC50 (recombinant HDAC1): 6.88 ± 0.85 nM
SMILES: Cc1cc(=O)oc2cc(OCCCCCCCC(=O)NO)ccc12 [Compound 12b, N–hydroxy–8–((4–methyl–2–oxo–2H–chromen–7–yl)oxy)octanamide]

IC50 (recombinant HDAC1): > 100 nM
SMILES: COc1ccc2c(OCCCCC(=O)NO)cc(=O)oc2c1 [Compound 11a, N–hydroxy–5–((7–methoxy–2–oxo–2H–chromen–4–yl)oxy)pentanamide]

IC50 (recombinant HDAC1): 7.33 ± 1.01 nM
SMILES: COc1ccc2c(OCCCCCCCCC(=O)NO)cc(=O)oc2c1 [Compound 11e, N–hydroxy–9–((7–methoxy–2–oxo–2H–chromen–4–yl)oxy)nonanamide]

IC50 (recombinant HDAC1): 19.4 ± 2.21 nM
SMILES: COc1ccc2c(OCCCCCC(=O)NO)cc(=O)oc2c1 [Compound 11b, N–hydroxy–6–((7–methoxy–2–oxo–2H–chromen–4–yl)oxy)hexanamide]

IC50 (recombinant HDAC1): 5.61 ± 0.56 nM
SMILES: COc1ccc2c(OCCCCCCC(=O)NO)cc(=O)oc2c1 [Compound 11c, N–hydroxy–7–((7–methoxy–2–oxo–2H–chromen–4–yl)oxy)heptanamide]

times greater potency than SAHA, HDAC1 (recombinant HDAC1): approximately three
IC50 (recombinant HDAC1): 8.72 ± 1.03 nM
SMILES: O=C(CCCCCCCOc1ccc2ccc(=O)oc2c1)NO [Compound 12a, N–hydroxy–8–((2–oxo–2H–chromen–7–yl)oxy)octanamide]

From paper PMC6680717, “Design, Synthesis and Biological Evaluation of Novel Coumarin-Based Hydroxamate Derivatives as Histone Deacetylase (Hdac) Inhibitors with Antitumor Activities” (Molecules, 2019)
